# Results taken from PubChem BioAssay (NCI).
#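 Dose response: 5 concentrations. Exposure: 48 h. Format: 96-well plates. Endpoint: linear interpolation; highest concentration if not reached. GI50 = concentration required for 50% inhibition of growth. TGI is the concentration that stops growth completely.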
# Experiments:
# Assay in all cases: growth of human tumour cells (NCI), 48 h
# 786-0 renal = test system: 786-0 renal
# A498 renal = test system: A498 renal
# A549 NSCLC = test system: A549 NSCLC
# ACHN renal = test system: ACHN renal
# BT-549 breast = test system: BT-549 breast
# CAKI-1 renal = test system: CAKI-1 renal
# CCRF-CEM leukemia = test system: CCRF-CEM leukemia
# COLO 205 colon = test system: COLO 205 colon
# DU-145 prostate = test system: DU-145 prostate
# EKVX NSCLC = test system: EKVX NSCLC
# HCC-2998 colon = test system: HCC-2998 colon
# HCT-116 colon = test system: HCT-116 colon
# HCT-15 colon = test system: HCT-15 colon
# HL-60(TB) leukemia = test system: HL-60(TB) leukemia
# HOP-62 NSCLC = test system: HOP-62 NSCLC
# HOP-92 NSCLC = test system: HOP-92 NSCLC
# HS 578T breast = test system: HS 578T breast
# HT29 colon = test system: HT29 colon
# K-562 leukemia = test system: K-562 leukemia
# KM12 colon = test system: KM12 colon
# LOX IMVI melanoma = test system: LOX IMVI melanoma
# M14 melanoma = test system: M14 melanoma
# MALME-3M melanoma = test system: MALME-3M melanoma
# MCF7 breast = test system: MCF7 breast
# MDA-MB-231 breast = test system: MDA-MB-231 breast
# MDA-MB-435 = test system: MDA-MB-435
# MOLT-4 leukemia = test system: MOLT-4 leukemia
# NCI-H226 lung = test system: NCI-H226 lung
# NCI-H23 lung = test system: NCI-H23 lung
# NCI-H460 lung = test system: NCI-H460 lung
# NCI-H522 lung = test system: NCI-H522 lung
# NCI/ADR-RES ovarian = test system: NCI/ADR-RES ovarian
# OVCAR-3 ovarian = test system: OVCAR-3 ovarian
# OVCAR-4 ovarian = test system: OVCAR-4 ovarian
# OVCAR-5 ovarian = test system: OVCAR-5 ovarian
# OVCAR-8 ovarian = test system: OVCAR-8 ovarian
# PC-3 prostate = test system: PC-3 prostate
# RPMI-8226 leukemia = test system: RPMI-8226 leukemia
# RXF 393 renal = test system: RXF 393 renal
# SF-268 CNS = test system: SF-268 CNS
# SF-295 CNS = test system: SF-295 CNS
# SF-539 CNS = test system: SF-539 CNS
# SK-MEL-28 melanoma = test system: SK-MEL-28 melanoma
# SK-MEL-5 melanoma = test system: SK-MEL-5 melanoma
# SK-OV-3 ovarian = test system: SK-OV-3 ovarian
# SN12C renal = test system: SN12C renal
# SNB-19 CNS = test system: SNB-19 CNS
# SNB-75 CNS = test system: SNB-75 CNS
# SW-620 colon = test system: SW-620 colon
# T-47D breast = test system: T-47D breast
# TK-10 renal = test system: TK-10 renal
# U251 CNS = test system: U251 CNS
# UACC-257 melanoma = test system: UACC-257 melanoma
# UACC-62 melanoma = test system: UACC-62 melanoma
# UO-31 renal = test system: UO-31 renal
smiles,measurement,setting,value
Clc1ccc2nc(Oc3ccccc3)cnc2c1,GI50,786-0 renal,> 100 µM
same,TGI,786-0 renal,> 100 µM
same,GI50,A498 renal,8.84 µM
same,TGI,A498 renal,> 100 µM
same,GI50,A549 NSCLC,> 100 µM
same,TGI,A549 NSCLC,> 100 µM
same,GI50,ACHN renal,> 100 µM
same,TGI,ACHN renal,> 100 µM
same,GI50,BT-549 breast,> 100 µM
same,TGI,BT-549 breast,> 100 µM
same,GI50,CAKI-1 renal,> 100 µM
same,TGI,CAKI-1 renal,> 100 µM
same,GI50,CCRF-CEM leukemia,> 100 µM
same,TGI,CCRF-CEM leukemia,> 100 µM
same,GI50,COLO 205 colon,> 100 µM
same,TGI,COLO 205 colon,> 100 µM
same,GI50,DU-145 prostate,> 100 µM
same,TGI,DU-145 prostate,> 100 µM
same,GI50,EKVX NSCLC,> 100 µM
same,TGI,EKVX NSCLC,> 100 µM
same,GI50,HCC-2998 colon,> 100 µM
same,TGI,HCC-2998 colon,> 100 µM
same,GI50,HCT-116 colon,> 100 µM
same,TGI,HCT-116 colon,> 100 µM
same,GI50,HCT-15 colon,> 100 µM
same,TGI,HCT-15 colon,> 100 µM
same,GI50,HL-60(TB) leukemia,> 100 µM
same,TGI,HL-60(TB) leukemia,> 100 µM
same,GI50,HOP-62 NSCLC,> 100 µM
same,TGI,HOP-62 NSCLC,> 100 µM
same,GI50,HOP-92 NSCLC,14 µM
same,TGI,HOP-92 NSCLC,> 100 µM
same,GI50,HS 578T breast,> 100 µM
same,TGI,HS 578T breast,> 100 µM
same,GI50,HT29 colon,> 100 µM
same,TGI,HT29 colon,> 100 µM
same,GI50,K-562 leukemia,> 100 µM
same,TGI,K-562 leukemia,> 100 µM
same,GI50,KM12 colon,> 100 µM
same,TGI,KM12 colon,> 100 µM
same,GI50,LOX IMVI melanoma,> 100 µM
same,TGI,LOX IMVI melanoma,> 100 µM
same,GI50,M14 melanoma,> 100 µM
same,TGI,M14 melanoma,> 100 µM
same,GI50,MALME-3M melanoma,> 100 µM
same,TGI,MALME-3M melanoma,> 100 µM
same,GI50,MCF7 breast,> 100 µM
same,TGI,MCF7 breast,> 100 µM
same,GI50,MDA-MB-231 breast,> 100 µM
same,TGI,MDA-MB-231 breast,> 100 µM
same,GI50,MDA-MB-435,> 100 µM
same,TGI,MDA-MB-435,> 100 µM
same,GI50,MOLT-4 leukemia,> 100 µM
same,TGI,MOLT-4 leukemia,> 100 µM
same,GI50,NCI-H226 lung,> 100 µM
same,TGI,NCI-H226 lung,> 100 µM
same,GI50,NCI-H23 lung,> 100 µM
same,TGI,NCI-H23 lung,> 100 µM
same,GI50,NCI-H460 lung,> 100 µM
same,TGI,NCI-H460 lung,> 100 µM
same,GI50,NCI-H522 lung,> 100 µM
same,TGI,NCI-H522 lung,> 100 µM
same,GI50,NCI/ADR-RES ovarian,> 100 µM
same,TGI,NCI/ADR-RES ovarian,> 100 µM
same,GI50,OVCAR-3 ovarian,> 100 µM
same,TGI,OVCAR-3 ovarian,> 100 µM
same,GI50,OVCAR-4 ovarian,> 100 µM
same,TGI,OVCAR-4 ovarian,> 100 µM
same,GI50,OVCAR-5 ovarian,> 100 µM
same,TGI,OVCAR-5 ovarian,> 100 µM
same,GI50,OVCAR-8 ovarian,> 100 µM
same,TGI,OVCAR-8 ovarian,> 100 µM
same,GI50,PC-3 prostate,> 100 µM
same,TGI,PC-3 prostate,> 100 µM
same,GI50,RPMI-8226 leukemia,> 100 µM
same,TGI,RPMI-8226 leukemia,> 100 µM
same,GI50,RXF 393 renal,> 100 µM
same,TGI,RXF 393 renal,> 100 µM
same,GI50,SF-268 CNS,> 100 µM
same,TGI,SF-268 CNS,> 100 µM
same,GI50,SF-295 CNS,> 100 µM
same,TGI,SF-295 CNS,> 100 µM
same,GI50,SF-539 CNS,> 100 µM
same,TGI,SF-539 CNS,> 100 µM
same,GI50,SK-MEL-28 melanoma,> 100 µM
same,TGI,SK-MEL-28 melanoma,> 100 µM
same,GI50,SK-MEL-5 melanoma,> 100 µM
same,TGI,SK-MEL-5 melanoma,> 100 µM
same,GI50,SK-OV-3 ovarian,> 100 µM
same,TGI,SK-OV-3 ovarian,> 100 µM
same,GI50,SN12C renal,> 100 µM
same,TGI,SN12C renal,> 100 µM
same,GI50,SNB-19 CNS,> 100 µM
same,TGI,SNB-19 CNS,> 100 µM
same,GI50,SNB-75 CNS,59 µM
same,TGI,SNB-75 CNS,> 100 µM
same,GI50,SW-620 colon,> 100 µM
same,TGI,SW-620 colon,> 100 µM
same,GI50,T-47D breast,> 100 µM
same,TGI,T-47D breast,> 100 µM
same,GI50,TK-10 renal,> 100 µM
same,TGI,TK-10 renal,> 100 µM
same,GI50,U251 CNS,> 100 µM
same,TGI,U251 CNS,> 100 µM
same,GI50,UACC-257 melanoma,> 100 µM
same,TGI,UACC-257 melanoma,> 100 µM
same,GI50,UACC-62 melanoma,> 100 µM
same,TGI,UACC-62 melanoma,> 100 µM
same,GI50,UO-31 renal,> 100 µM
same,TGI,UO-31 renal,> 100 µM
